From US9931350B2, “Anti-infective and osteogenic compositions and methods of use” (BRIGHAM YOUNG UNIVERSITY, priority 2014, dated 2018)
Values after ≈ are worked out from the molar mass of the structure shown.

Legend:
[1] = test system: tobramycin-resistant P. aeruginosa (TRPA); assay: MIC against tobramycin-resistant P. aeruginosa; assay type: cell-based; conditions: Pseudomonas aeruginosa; TSB, 37° C., 24 hours
Method: (§1) Representative Procedure for Measuring MIC Values: A suspension is prepared of bacteria containing ˜10^6CFU (colony forming units)/mL from a culture incubated in TSB at 37° C. for 24 hours. Aliquots of 1 mL of the suspension are added to test tubes containing 1 mL TSB and incrementally varied concentrations of CSA compound. The samples are subjected to stationary incubation at 37° C. for 24 hours. Sample turbidity is determined by measuring absorption at 760 nm (HP 8453 UV-Visible Chemstation, Hewlett Packard). Additionally, an alliquot from each of the samples showing no measurable turbidity is subcultured on TSA plates (alliquots were diluted to provide fewer than 300 CFU). Colonies that grow on the subculture after overnight incubation are counted and the number of CFU/mL in the samples is calculated. The calculated values are compared to the number of CFU/mL in the original inoculum. MIC values are determined as the concentrations of the studied compounds at which the number of CFU/mL remained constant or decreased after incubation for 24 hours. CSA compounds were screened against methicillin-resistant S. aureus (MRSA) and tobramycin-resistant P. aeruginosa (TRPA).

[2] = test system: methicillin-resistant S. aureus (MRSA); assay: MIC against methicillin-resistant S. aureus; assay type: cell-based; conditions: Staphylococcus aureus, TSB, 37° C., 24 hours
Method: as §1

[3] = test system: ectopic bone formation; assay: Mammalian ectopic bone formation model; assay type: in vivo, mouse
From the text: Bone formation was examined by XR (Faxitron) and quantified by microCT (Skyscan 1174). Bone nodules were also examined by histology.

[4] = test system: open fracture; assay: Mammalian open fracture model, without bacteria inoculation; assay type: in vivo, rats
From the text: (§2) In this model, infection was initiated by delivery of 10^4 CFU of pathogenic Staphlococcus aureus in ACS at the time of surgery. […] The primary outcome measure was the number of animals culled with infected fractures. Animal health and radiographic bone healing were monitored by an experienced veterinarian in a blinded fashion to inoculation or treatment. Animals diagnosed as having progressively deteriorating condition with XRs showing evidence of infection were culled and infection confirmed by culture swab post-mortem. Secondary outcome measures included union at 3 weeks and 6 weeks (excluding pin-slippage), and bone callus microCT measures at 6 weeks.

[5] = test system: Staphlococcus aureus; assay: Mammalian open fracture model, inoculated with S. aureus; assay type: in vivo, rats
From the text: as §2

Structure (SMILES) | MIC [1] [mg/L] | MIC [2] [mg/L] | Mean bone volume by microCT ([3]; 25 μg CSA-90 added to 10 μg rhBMP-2 in ACS, P=0.02) | Mean bone volume by microCT ([3]; 250 μg CSA-90 added to 10 μg rhBMP-2 in ACS, P<0.01) | Osteoclast number, histological assessment ([3]; CSA-90 treatment) | Histological assessment of bone nodules ([3]; rhBMP-2 treated groups, CSA-90 treatment alone (250 μg)) | Union rate at 3 weeks ([4]; 3 weeks, treated groups with and without inoculation) [%] | Union rate by 6 weeks ([4]; 6 weeks) | Pin Slip Cull Rate ([4]; no bacteria) [%] | Infected Cull Rate ([4]; no bacteria, 250 μg CSA-90 and/or 10 μg rhBMP-2 via ACS) [%] | # Infected Culls ([4]; no bacteria, animals/group) | # Pin Slips ([4]; no bacteria, animals/group) | Pin Slip Cull Rate ([5]; 10^4 cfu Staph) [%] | Infected Cull Rate ([5]; 10^4 cfu Staph, 250 μg CSA-90 and/or 10 μg rhBMP-2 via ACS) [%] | # Infected Culls ([5]; 10^4 cfu Staph, animals/group) | # Pin Slips ([5]; 10^4 cfu Staph, animals/group) | Animals culled with a pin slip (no infection seen in culture) ([5]; inoculated group) | Animals culled with infected fractures ([5]; inoculated with S. aureus)
CCCCCCCCN(CCCCCCCC)CCC[C@@H](C)[C@H]1CC[C@H]2[C@@H]3[C@H](OCCCN)C[C@@H]4C[C@H](OCCCN)CC[C@]4(C)[C@H]3C[C@H](OCCCN)[C@]12C [CSA-91] | 6 (≈ 7.6 µM) | 5 (≈ 6.33 µM) | – | – | – | – | – | – | – | – | – | – | – | – | – | – | – | –
CCCCCN(CCCCC)CCC[C@@H](C)[C@H]1CC[C@H]2[C@@H]3[C@H](OCCCN)C[C@@H]4C[C@H](OCCCN)CC[C@]4(C)[C@H]3C[C@H](OCCCN)[C@]12C [CSA-90] | 3 (≈ 4.25 µM) | 0.6 (≈ 0.851 µM) | significantly increased | significantly increased | no significant decrease | evidence of localized tissue mineralization | ~50 | increased but not to 100% | 0 | 0 | 0/6 | 0/6 | 20 | 0 | 0/5 | 1/5 | one | no infected culls
